Experimental data as given in patent US11702418B2, “SOS1 inhibitors” (priority 2019, dated 2023).
Where a name gives a salt, the structure may show the parent alone. Read-outs that look alike come from different tables or passages of the source.

Tests used:
[1] = tested on: pERK in MKN1 cells; test: cells; assay type: cell-based; conditions: Homo sapiens
[2] = biological target: recombinant human SOS1 polypeptide (amino acids 560-1049) (Homo sapiens (Human), UniProt Q07889); test: biochemical; assay type: binding; conditions: read-out: Ki, Inhibition of Labeled Tracer Binding to SOS1
[3] = MKN-1, pERK inhibition, In-Cell Western, MKN1 or H358 cells (Table 24 does not say which), 0.5-1 hour incubation, read-out: IC50
[4] = HTRF displacement, Cy5 labelled tracer, Morrison equation for competitive binding

Sequence of recombinant human SOS1 polypeptide (amino acids 560-1049) (Q07889 560-1049): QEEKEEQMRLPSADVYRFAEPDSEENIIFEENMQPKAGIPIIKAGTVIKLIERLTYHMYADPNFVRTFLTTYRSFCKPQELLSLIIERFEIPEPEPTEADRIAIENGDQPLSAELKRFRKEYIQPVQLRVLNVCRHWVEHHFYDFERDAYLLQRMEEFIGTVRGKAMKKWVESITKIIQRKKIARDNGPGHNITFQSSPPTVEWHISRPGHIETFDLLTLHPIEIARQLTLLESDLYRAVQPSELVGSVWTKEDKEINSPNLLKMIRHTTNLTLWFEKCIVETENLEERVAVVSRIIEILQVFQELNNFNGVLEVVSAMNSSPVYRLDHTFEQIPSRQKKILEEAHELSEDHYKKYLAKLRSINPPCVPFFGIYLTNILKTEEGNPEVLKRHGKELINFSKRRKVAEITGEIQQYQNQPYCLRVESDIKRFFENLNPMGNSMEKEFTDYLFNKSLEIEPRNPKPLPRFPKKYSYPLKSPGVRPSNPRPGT

With `Cc1c(C#N)cccc1[C@@H](C)Nc1nnc(C)c2ccc(N3CC4(COCCN4C)C3)cc12` [Example 10-79, (R)-2-methyl-3-(1-((4-methyl-7-(5-methyl-8-oxa-2,5-diazaspiro[3.5]nonan-2-yl)phthalazin-1-yl)amino)ethyl)benzonitrile Formate salt] the IC50 ([1]; MKN-1) was 16 nM and the Ki [2] was 4.15 nM.

Work on `Cc1c(C#N)cccc1[C@@H](C)Nc1nnc(C)c2ccc(N3CCN4CCCC[C@@H]4C3)cc12` [Example 10-82, 2-methyl-3-((R)-1-((4-methyl-7-((R)-octahydro-2H-pyrido[1,2-a]pyrazin-2-yl)phthalazin-1-yl)amino)ethyl)benzonitrile Hydrochloride salt] yielded an IC50 ([1]; MKN-1) of 52 nM and a Ki [2] of 0.86 nM.

For `Cc1nnc(N[C@H](C)c2cccc(C(F)F)c2F)c2cc(N3C[C@H]4C[C@@H]3CO4)ccc12` [Example 10-85, 7-((1R,4R)-2-oxa-5-azabicyclo[2.2.1]heptan-5-yl)-N-((R)-1-(3-(difluoromethyl)-2-fluorophenyl)ethyl)-4-methylphthalazin-1-amine], the IC50 [1, 3] was 18 nM and the Ki [2, 4] was 0.78 nM.

`Cc1nnc(N[C@H](C)c2cccc(C(F)F)c2F)c2cc(N3CCN4CCOC[C@@H]4C3)ccc12` [Example 10-86, N-((R)-1-(3-(difluoromethyl)-2-fluorophenyl)ethyl)-7-((S)-hexahydropyrazino[2,1-c][1,4]oxazin-8(1H)-yl)-4-methylphthalazin-1-amine Formate salt] gave an IC50 ([1]; MKN-1) of 21 nM and a Ki [2] of 1.51 nM.

`Cc1c([C@@H](C)Nc2nnc(C)c3ccc(N4CCN(C(=O)[C@H]5CCOC5)CC4)cc23)cccc1C(F)(F)F` [Example 11-5, (4-(1-methyl-4-(((R)-1-(2-methyl-3-(trifluoromethyl)phenyl)ethyl)amino)phthalazin-6-yl)piperazin-1-yl)((S)-tetrahydrofuran-3-yl)methanone] gave an IC50 [1, 3] of 12 nM and a Ki [2, 4] of 0.01 nM.

In the case of `Cc1c(C#N)cccc1[C@@H](C)Nc1nnc(C)c2cnc(N3CCN(C(=O)C4CC4)CC3)cc12` [Example 11-6, (R)-3-(1-((7-(4-(cyclopropanecarbonyl)piperazin-1-yl)-4-methylpyrido[3,4-d]pyridazin-1-yl)amino)ethyl)-2-methylbenzonitrile], the IC50 [1, 3] is reported as 55 nM and the Ki [2, 4] is reported as 0.42 nM.

Work on `Cc1c([C@@H](C)Nc2nnc(C)c3cnc(N4CCN(c5cnn(C)c5)CC4)cc23)cccc1C(F)(F)F` [Example 12-1, (R)-4-methyl-7-(4-(1-methyl-1H-pyrazol-4-yl)piperazin-1-yl)-N-(1-(2-methyl-3-(trifluoromethyl)phenyl)ethyl)pyrido[3,4-d]pyridazin-1-amine] yielded an IC50 [1, 3] of 5 nM and a Ki [2, 4] of 0.2 nM.

With `Cc1c([C@@H](C)Nc2nnc(C)c3cnc(N4CC5CC(C4)O5)cc23)cccc1C(F)(F)F` [Example 12-2, 7-(6-oxa-3-azabicyclo[3.1.1]heptan-3-yl)-4-methyl-N—((R)-1-(2-methyl-3-(trifluoromethyl)phenyl)ethyl)pyrido[3,4-d]pyridazin-1-amine] the IC50 [1, 3] was 9 nM and the Ki [2, 4] was 0.6 nM.

`Cc1c([C@@H](C)Nc2nnc(C)c3cnc(N4CC5(COC5)C4)cc23)cccc1C(F)(F)F` [Example 12-3] was tested, and the IC50 [1, 3] was 30 nM and the Ki [2, 4] was 0.74 nM.

In the case of `Cc1c([C@@H](C)Nc2nnc(C)c3cnc(N4C[C@H](C)O[C@@H](C)C4)cc23)cccc1C(F)(F)F` [Example 12-6], the IC50 [1, 3] is reported as 522 nM and the Ki [2, 4] is reported as 0.87 nM.

`Cc1c([C@@H](C)Nc2nnc(C)c3cnc(N4CCC(C)(O)CC4)cc23)cccc1C(F)(F)F` [Example 12-7] was tested, and the IC50 [1, 3] was 66 nM and the Ki [2, 4] was 0.4 nM.

Compound `Cc1c([C@@H](C)Nc2nnc(C)c3cnc(N4C[C@@H]5C[C@H]4CO5)cc23)cccc1C(F)(F)F` [Example 12-8] has an IC50 [1, 3] of 38 nM and a Ki [2, 4] of 1.14 nM.

`Cc1c([C@@H](C)Nc2nnc(C)c3cnc(N4C[C@H]5C[C@@H]4CO5)cc23)cccc1C(F)(F)F` [Example 12-9] was tested, and the IC50 [1, 3] was 10 nM and the Ki [2, 4] was 0.47 nM.

`Cc1c([C@@H](C)Nc2nnc(C)c3cnc(O[C@H]4CCN(C)C4)cc23)cccc1C(F)(F)F` [Example 12-11] gave an IC50 [1, 3] of 142 nM and a Ki [2, 4] of 8.76 nM.

`Cc1c([C@@H](C)Nc2nnc(C)c3cnc(OC4CN(C)C4)cc23)cccc1C(F)(F)F` [Example 12-12] was tested, and the IC50 [1, 3] was 249 nM and the Ki [2, 4] was 21.6 nM.

For `Cc1c([C@@H](C)Nc2nnc(C)c3cnc(N4CCS(=O)(=O)CC4)cc23)cccc1C(F)(F)F` [Example 12-13], the IC50 [1, 3] was 39 nM and the Ki [2, 4] was 1.57 nM.

`Cc1c([C@@H](C)Nc2nnc(C)c3cnc(N4CCN5CCOC[C@@H]5C4)cc23)cccc1C(F)(F)F` [Example 12-14] showed an IC50 [1, 3] of 17 nM and a Ki [2, 4] of 0.55 nM.

`Cc1c([C@@H](C)Nc2nnc(C)c3cnc(N4CCC(N(C)C)CC4)cc23)cccc1C(F)(F)F` [Example 12-15] gave an IC50 [1, 3] of 17 nM and a Ki [2, 4] of 0.25 nM.

`Cc1c([C@@H](C)Nc2nnc(C)c3cnc(N4CC5(CCN(C)C5=O)C4)cc23)cccc1C(F)(F)F` [Example 12-16] showed an IC50 [1, 3] of 11 nM and a Ki [2, 4] of 0.87 nM.

In the case of `Cc1c([C@@H](C)Nc2nnc(C)c3cnc(N4CC5(CCN(C)C5)C4)cc23)cccc1C(F)(F)F` [Example 12-17], the IC50 [1, 3] is reported as 17 nM and the Ki [2, 4] is reported as 0.46 nM.

`Cc1c([C@@H](C)Nc2nnc(C)c3cnc(N4CCC(C)(N(C)C)CC4)cc23)cccc1C(F)(F)F` [Example 12-18] showed an IC50 [1, 3] of 37 nM and a Ki [2, 4] of 0.62 nM.

`Cc1c([C@@H](C)Nc2nnc(C)c3cnc(N4CC(C)(N(C)C)C4)cc23)cccc1C(F)(F)F` [Example 12-19] gave an IC50 [1, 3] of 59 nM and a Ki [2, 4] of 1 nM.

`Cc1c([C@@H](C)Nc2nnc(C)c3cnc(N4CC(N(C)C)C4)cc23)cccc1C(F)(F)F` [Example 12-20] was tested, and the IC50 [1, 3] was 62 nM and the Ki [2, 4] was 1.6 nM.

`Cc1c([C@@H](C)Nc2nnc(C)c3cnc(N4CC(C)(O)C4)cc23)cccc1C(F)(F)F` [Example 12-21] showed an IC50 [1, 3] of 57 nM and a Ki [2, 4] of 1.32 nM.

`Cc1c([C@@H](C)Nc2nnc(C)c3cnc(N4CC(O)C4)cc23)cccc1C(F)(F)F` [Example 12-22] showed an IC50 [1, 3] of 89 nM and a Ki [2, 4] of 1.24 nM.

`Cc1c(C#N)cccc1[C@@H](C)Nc1nnc(C)c2cnc(N3CC4CC(C3)O4)cc12` [Example 12-23] gave an IC50 [1, 3] of 46 nM and a Ki [2, 4] of 1.05 nM.

With `Cc1c(C#N)cccc1[C@@H](C)Nc1nnc(C)c2cnc(N3C[C@H]4C[C@@H]3CO4)cc12` [Example 12-24] the IC50 [1, 3] was 38 nM and the Ki [2, 4] was 1.24 nM.

`Cc1c(C#N)cccc1[C@@H](C)Nc1nnc(C)c2cnc(N3CCNCC3)cc12` [Example 12-25] gave an IC50 [1, 3] of 35 nM and a Ki [2, 4] of 2.41 nM.

`Cc1c([C@@H](C)Nc2nnc(C)c3cnc(N4C[C@H]5CC[C@@H]4CN5C)cc23)cccc1C(F)(F)F` [Example 12-26] gave an IC50 [1, 3] of 27 nM and a Ki [2, 4] of 0.45 nM.

For `Cc1c(C#N)cccc1[C@@H](C)Nc1nnc(C)c2cnc(N3CCN4CCOC[C@@H]4C3)cc12` [Example 12-27], the IC50 [1, 3] was 14 nM and the Ki [2, 4] was 2.81 nM.

For `Cc1c(C#N)cccc1[C@@H](C)Nc1nnc(C)c2cnc(N3CCC(N(C)C)CC3)cc12` [Example 12-28], the IC50 [1, 3] was 17 nM and the Ki [2, 4] was 1.53 nM.

With `Cc1c(C#N)cccc1[C@@H](C)Nc1nnc(C)c2cnc(N3CCC(N4CCC4)CC3)cc12` [Example 12-29] the IC50 [1, 3] was 16 nM and the Ki [2, 4] was 1.67 nM.

In the case of `Cc1c(C#N)cccc1[C@@H](C)Nc1nnc(C)c2cnc(N3CC(C)(O)C3)cc12` [Example 12-30], the IC50 [1, 3] is reported as 54 nM and the Ki [2, 4] is reported as 2.63 nM.

`Cc1c([C@@H](C)Nc2nnc(C)c3cnc(N4C5CCC4COC5)cc23)cccc1C(F)(F)F` [Example 12-31] was tested, and the IC50 [1, 3] was 70 nM and the Ki [2, 4] was 1.02 nM.

`Cc1c([C@@H](C)Nc2nnc(C)c3cnc(N4CC5(CCNC5=O)C4)cc23)cccc1C(F)(F)F` [Example 12-32] gave an IC50 [1, 3] of 18 nM and a Ki [2, 4] of 0.97 nM.

Work on `Cc1c([C@@H](C)Nc2nnc(C)c3cnc(N4CCC(N5CCC5)CC4)cc23)cccc1C(F)(F)F` [Example 12-33] yielded an IC50 [1, 3] of 55 nM and a Ki [2, 4] of 0.3 nM.

For `Cc1c(C#N)cccc1[C@@H](C)Nc1nnc(C)c2cnc(N3CCC(F)(F)CC3)cc12` [Example 12-34], the IC50 [1, 3] was 51 nM and the Ki [2, 4] was 4.24 nM.

`Cc1c(C#N)cccc1[C@@H](C)Nc1nnc(C)c2cnc(N3CC4(CCN(C)C4=O)C3)cc12` [Example 12-35] gave an IC50 [1, 3] of 35 nM and a Ki [2, 4] of 3.78 nM.

For `Cc1c(C#N)cccc1[C@@H](C)Nc1nnc(C)c2cnc(N3CCN(c4cnn(C)c4)CC3)cc12` [Example 12-36], the IC50 [1, 3] was 12 nM and the Ki [2, 4] was 0.99 nM.

In the case of `COC1(C)CN(c2cc3c(N[C@H](C)c4cccc(C(F)(F)F)c4C)nnc(C)c3cn2)C1` [Example 12-37], the IC50 [1, 3] is reported as 32 nM and the Ki [2, 4] is reported as 0.85 nM.

`Cc1c([C@@H](C)Nc2nnc(C)c3cnc(N4CCC4)cc23)cccc1C(F)(F)F` [Example 12-38] showed an IC50 [1, 3] of 97 nM and a Ki [2, 4] of 1.29 nM.

`Cc1c([C@@H](C)Nc2nnc(C)c3cnc(N4CC(C)(CO)C4)cc23)cccc1C(F)(F)F` [Example 12-39] gave an IC50 [1, 3] of 75 nM and a Ki [2, 4] of 0.91 nM.

Work on `Cc1c(C#N)cccc1[C@@H](C)Nc1nnc(C)c2cnc(N3C[C@H]4CC[C@@H]3CN4C)cc12` [Example 12-40] yielded an IC50 [1, 3] of 24 nM and a Ki [2, 4] of 0.64 nM.

Work on `Cc1c(C(F)F)cccc1[C@@H](C)Nc1nnc(C)c2cnc(N3CCN4CCOC[C@@H]4C3)cc12` [Example 12-42] yielded an IC50 [1, 3] of 27 nM and a Ki [2, 4] of 0.79 nM.

`Cc1c(C#N)cccc1[C@@H](C)Nc1nnc(C)c2cnc(N3CC(C)(N(C)C)C3)cc12` [Example 12-43] showed an IC50 [1, 3] of 44 nM and a Ki [2, 4] of 3.38 nM.

In the case of `Cc1c(C#N)cccc1[C@@H](C)Nc1nnc(C)c2cnc(N3CCN(C)CC3)cc12` [Example 12-44], the IC50 [1, 3] is reported as 38 nM and the Ki [2, 4] is reported as 1.16 nM.

`Cc1c(C#N)cccc1[C@@H](C)Nc1nnc(C)c2cnc(N(C)C)cc12` [Example 12-45] gave an IC50 [1, 3] of 250 nM and a Ki [2, 4] of 3.78 nM.

Compound `Cc1c(C#N)cccc1[C@@H](C)Nc1nnc(C)c2cnc(N3CCC(C)(N(C)C)CC3)cc12` [Example 12-46] has an IC50 [1, 3] of 37 nM and a Ki [2, 4] of 0.92 nM.

`Cc1nnc(N[C@H](C)c2ccc(F)cc2F)c2cc(N3CC(C)(O)C3)ncc12` [Example 12-47] gave an IC50 [1, 3] of 307 nM and a Ki [2, 4] of 38.7 nM.

Work on `Cc1nnc(N[C@H](C)c2ccc(F)cc2F)c2cc(N3CCN4CCOC[C@@H]4C3)ncc12` [Example 12-48] yielded an IC50 [1, 3] of 114 nM and a Ki [2, 4] of 17 nM.
